{"source": "patent US20240158339A1", "about": "“TYRAMINE CONTAINING HYDROXYCINNAMIC ACID AMIDE DERIVATIVES AND METHODS OF USE THEREOF” (Brightseed, Inc., priority 2018, published 2024)", "key": {"HNF4α": {"target": "T1, HNF4α (Homo sapiens, UniProt P41235)", "T1 construct": "T6PNE cells (Kiselyuk, et al. (2012) Chem. Biol. 19(7):806-818; Kiselyuk, et al. (2010) J. Biomol; endogenous in cells; host or cells: T6PNE cells", "T1 sequence (P41235 1-474)": "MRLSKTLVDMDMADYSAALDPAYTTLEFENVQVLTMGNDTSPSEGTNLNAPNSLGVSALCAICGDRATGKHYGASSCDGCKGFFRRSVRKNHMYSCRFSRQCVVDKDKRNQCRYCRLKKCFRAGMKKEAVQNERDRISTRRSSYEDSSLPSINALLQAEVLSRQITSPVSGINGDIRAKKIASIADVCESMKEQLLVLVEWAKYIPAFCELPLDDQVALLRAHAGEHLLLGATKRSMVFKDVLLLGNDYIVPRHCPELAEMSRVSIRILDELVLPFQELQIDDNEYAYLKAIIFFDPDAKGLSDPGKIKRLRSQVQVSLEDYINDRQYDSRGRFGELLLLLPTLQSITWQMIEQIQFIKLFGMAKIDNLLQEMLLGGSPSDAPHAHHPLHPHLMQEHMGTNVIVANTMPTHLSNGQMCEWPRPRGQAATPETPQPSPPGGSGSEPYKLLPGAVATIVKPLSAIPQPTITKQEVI", "assay": "Insulin promoter activity assay (HNF4α assay) in T6PNE cells", "format": "cell-based", "protocol": "Insulin Promoter Activity. T6PNE cells (Kiselyuk, et al. (2012) Chem. Biol. 19(7):806-818; Kiselyuk, et al. (2010) J. Biomol. Screen 15(6):663-70) are seeded at 2000 cells per well in 384-well tissue culture plates in the presence of 1 μM tamoxifen and 0.03 mM palmitate. After a 24-hour incubation, a compound of the invention is added to the cells. Forty-eight hours after compound addition, cells are fixed in 4% paraformaldehyde and stained with DAPI. Blue (DAPI) and green (human insulin promoter driving GFP) channels are imaged.\nInhibition of HNF4α GFP Expression. Using the insulin promoter assay described herein, activity of HNF4α was assessed in the presence of BI-6015 (0, 2.5, 5 μM), a known antagonist of HNF4α (Kiselyuk, et al. (2012) Chem. Biol. 19(7):806-818), in combination with N-trans-caffeoyltyramine (0, 5, 10, 20 μM).\nGiven the role of HNF4α in maintaining a health metabolism in humans, test compounds were screened for activity as HNF4α agonists (either direct or indirect effects). Using a known insulin promoter-reporter assay Kiselyuk and colleagues (2010. J. Biomol. Screen 15(6):663-70) screened a library of compounds for activity to promote insulin activation. […] The OTC promoter is known to be responsive to HNF4α in transient transfection assays (Inoue, et al. (2002) J. Biol. Chem. 277:25257-65).\nPlant compounds in the top 10th percentile of similarity to the 18 target structures were selected and compounds predicted to be potential agonists of HNF4α activity given their chemical structural features were screened in the HNF4α assay."}, "diet-induced obese mice": {"test_system": "diet-induced obese mice", "assay": "Efficacy in diet-induced obese mice", "format": "in vivo", "protocol": "Alkaline Phosphatase (ALP) Quantitation. Increased levels of ALP in blood are considered indicative of liver function abnormalities. Thus, ALP was assayed in accordance with known methods (Kiselyuk, et al. (2012) Chem. Biol. 19(7):806-818). Briefly, prior to sacrifice, blood was drawn and analyzed using a VetScan blood analyzer, measuring alkaline phosphatase (ALP, IU/L), alanine aminotransferase (ALT, IU/L), gamma glutamyl transferase (GGT, IU/L), bile acids (BA, μmol/L), total bilirubin (TBIL, mg/dL), albumin (ALB, g/dL), blood urea nitrogen (BUN, mg/dL), and cholesterol (CHOL, mg/dL).\nTriglyceride (TG) Quantitation. TG quantity was assayed using a Triglyceride Colorimetric Assay Kit (Cayman Chemicals; Ann Arbor, MI) according to the manufacturer's instructions.\nLipid Droplet Size Analysis. All slides were scanned at a magnification of 20× using the Aperio Scanscope FL system (Aperio Technologies Inc.; Vista, CA). The appropriate dyes were assigned and illumination levels were calibrated using a preset procedure; the parameters were saved and applied to all slides. The acquired digital images represented whole tissue sections. Sections were evaluated for image quality. All acquired images were subsequently placed in dedicated project folders, and stored on a designated local server. Selected areas of the slides were selected using Aperio Imagescope (version 12 Aperio Technologies Inc.). For analysis, slides were viewed, whole tissue areas were selected and analyzed using the web-based Image Scope viewer. Slides were quantified using the ‘Color Deconvolution v9’ algorithm for oil redo staining (version 11 Aperio Technologies Inc.). The algorithm was optimized using a preset procedure to maximize the strong red color positive oil droplets signal to noise ratio and the subsequent macro was saved and applied to all slides.\nHNF4α Immunostaining in Organ Samples. Samples were harvested from mice, fixed in 4% paraformaldehyde and embedded in paraffin or O.C.T. freezing media (Sakura Finetek; Torrance, CA). Slides of 5 μm thickness were washed four times with PBS and treated with 0.3% Triton™ in PBS for 10 minutes. Antigen retrieval was carried out with CitriSolv™ (Fisher Scientific; Waltham, MA) for 10 minutes in sub-boiling temperature. After washing with PBS for 10 minutes, slides were incubated in blocking solution with 5% normal donkey serum (Jackson Immuno Research; West Grove, PA) for 60 minutes at room temperature. Cells were fixed in 4% paraformaldehyde for 15 minutes on 4° C. and washed with PBS, treated with 0.3% Triton™ in PBS for 10 minutes and blocked as previously described for slide samples.\nPrimary Antibodies. HNF4α antibodies were used (#sc-6556, Santa Cruz Biotechnology; Santa Cruz, CA and #3113, Cell Signaling Technology; Danvers, MA). For fluorescent imaging, samples were incubated with ALEXA FLOUR® 488 green-fluorescent dye or Rhodamine labeled anti-mouse, rabbit or goat and nuclei were counterstained with DAPI (4′,6-diamidino-2-phenylindole). Controls using secondary antibodies alone were used to ensure specificity of immunostaining. Fluorescently labeled sections were analyzed with a conventional inverted microscope (Olympus, PlanFl 40x/0.60) or with a confocal microscope equipped with a krypton/argon laser.\nThe experiments were performed to establish feedingand treatment regimens, dosing and administration regimens, as well as to provide evidence of beneficial effects of N-trans-caffeoyltyramine on glucose and lipid homeostasis, hepatic steatosis, -cell function and hepatocyte function. Twelve mice (10 weeks old) were fed a high-fat diet for four weeks to induce obesity. After four weeks, and while on the high-fat diet, six mice were administered 5% DMSO or 120 mg/kg N-trans-caffeoyltyramine twice a day intraperitoneally for 14 days. One hour after the last i.p. injection of DMSO or N-trans-caffeoyltyramine, the animals were sacrificed and blood and organ (liver, kidney, gut and pancreas) samples were collected. […]"}}, "note": "“Also recorded” adds a separate entry of the source."}
{"compound": "O=C(/C=C/c1ccc(O)c(O)c1)NCCc1ccc(O)cc1", "note": "[N-trans-caffeoyltyramine]", "values": [{"measurement": "potency in activating HNF4α relative to Alverine", "setting": "HNF4α; FIG. 1, dose-response, insulin promoter activity", "value": "roughly an order-of-magnitude more potent than Alverine"}, {"measurement": "HNF4α activation / bioactivity (screening result in words)", "setting": "HNF4α; HNF4α assay, screening and SAR statements", "value": "able to act as HNF4α modulators"}, {"measurement": "lipid accumulation in the liver", "setting": "diet-induced obese mice; 120 mg/kg twice a day i.p. for 14 days vs DMSO", "value": "decreased lipid accumulation"}, {"measurement": "lipid droplet sizes in the liver", "setting": "diet-induced obese mice; 120 mg/kg twice a day i.p. for 14 days vs DMSO, FIG. 8", "value": "reduced"}, {"measurement": "levels of triglycerides", "setting": "diet-induced obese mice; 120 mg/kg twice a day i.p. for 14 days vs DMSO, FIG. 10", "value": "significantly reduced"}, {"measurement": "HNF4α expression in the pancreas", "setting": "diet-induced obese mice; 120 mg/kg twice a day i.p. for 14 days vs DMSO, FIG. 11", "value": "increased"}, {"measurement": "HNF4α expression in intestines", "setting": "diet-induced obese mice; 120 mg/kg twice a day i.p. for 14 days vs DMSO, FIG. 12", "value": "increased"}, {"measurement": "HNF4α expression in the liver (nuclear expression)", "setting": "diet-induced obese mice; 120 mg/kg twice a day i.p. for 14 days vs DMSO, P=0.0042, FIG. 7", "value": "significantly increased; also recorded: increases nuclear expression of HNF4α"}, {"measurement": "weight loss, sickness, or abnormal behaviors compared to the control group", "setting": "diet-induced obese mice; 120 mg/kg twice a day i.p. for 14 days, high-fat diet mice", "value": "None of the treated mice exhibited weight loss, sickness, or abnormal behaviors"}, {"measurement": "levels of alkaline phosphatase", "setting": "diet-induced obese mice; blood, 120 mg/kg twice a day i.p. for 14 days vs DMSO, FIG. 9", "value": "significantly reduced"}]}
